Results taken from PMC11141866, “Pyrimidine depletion enhances targeted and immune therapy combinations in acute myeloid leukemia” (JCI Insight, 2024).
“And” between values parts separate entries of the source, which are not always exact repeats. Equal entries are not always repeated.

Legend:
[1] = tested on: OCI-AML3; test: MTS proliferation assay, OCI-AML3; assay type: cell-based; settings: Homo sapiens, OCI-AML-3; OCI-AML3, 96-hour treatment; read-out: IC50 (MTS proliferation)
Protocol: (§1) A total of 10,000–20,000 cells from different AML lines or 50,000–75,000 cells of primary AML blasts were treated in a 96-well plate for 72 hours or 96 hours at 37°C, 5% CO2. CellTiter 96 Aqueous MTS reagent (Promega) was added to cells followed by a 3-hour incubation at 37°C, 5% CO2. The absorbance was measured at 490 nm using DTX 880 plate reader, and the IC50 was calculated using GraphPad Prism.

[2] = tested on: primary AML patient samples; test: Flow cytometry CD47 surface expression, primary AML samples; assay type: cell-based, human; settings: 50nM
Protocol: (§2) Cells were thawed in 50% FBS RPMI and then cultured in StemSpan (StemCell Technologies) media supplemented with human FLT3L, SCF, GM-CSF, G-CSF, IL-3, IL-6, TPO, and EPO cytokines for 7 days (LTC).
(§3) After 72 hours or 7 days of treatment of DHODHi, cells were collected and washed with PBS, blocked with human Fc block (BioLegend), and stained with antibodies for 30 minutes on ice. Antibodies were washed off and cells resuspended in FACS buffer (2% FBS, 2 mM NaN3, Dulbecco’s PBS) for analysis using BD LSRFortessa or Cytek Aurora spectral flow cytometer. Live/dead exclusion was done using LIVE/DEAD Fixable Near-IR (Invitrogen). All antibodies were purchased from BioLegend except CD47, which was purchased from BD Biosciences: CD11b clone M1/70, CD38 clone HIT2, CD14 clone M5E2, CD47 clone B6H12, CD33 clone WM53, CD3 clone UCHT1, CD19 clone HIB19, and CD45 clone HI30.
Supplemental Figure S.8. DHODHi modulates CD47 surface antigen expression. A) Representative flow cytometry overlay histogram plot for CD47 surface expression in MV4-11 cell line following a 72- […]
supplementation (experiment was done five independent times). B) Flow cytometry analysis of CD47 surface expression in primary AML patient samples (n=8-10) treated in vitro for seven days (long term culture, LTC). Data is shown as mean florescent intensity (MFI) of CD47 gated on live CD45+CD3-CD19- cells, error bars indicate mean with 95% confidence interval. C) Representative flow cytometry […]
modulation of CD47 post DHODHi treatment.
(1 picture or pasted object on this page, not shown here)

[3] = tested on: Kasumi; test: MTS proliferation assay, Kasumi; assay type: cell-based; settings: Homo sapiens; Kasumi, 96-hour treatment; read-out: IC50 (MTS proliferation)
Protocol: as §1

[4] = tested on: primary AML patient samples; test: Flow cytometry viability, primary AML long-term culture; assay type: cell-based, human
Protocol: as §2, §3
Supplemental Figure S.2. […] A).
Flow cytometry analysis of viable primary AML patient samples (n=10) treated in vitro for seven days
(long term culture, LTC). […]

[5] = tested on: MOLM-13; test: MTS proliferation assay, MOLM-13; assay type: cell-based; settings: Homo sapiens; MOLM-13, 96-hour treatment; read-out: IC50 (MTS proliferation)
Protocol: as §1

[6] = tested on: MOLM-13 disseminated CDX AML model; test: MOLM-13 CDX synergy with anti-CD47 immunotherapy; assay type: in vivo, NCG mice; settings: event 1 = death, 0 = censored
Protocol: Male 8- to 12-week-old NCG mice were engrafted with […] cells via tail vein i.v. injection. Four days after engraftment (day 1 of treatment), mice (n = 10/arm) were randomized to receive p.o. qd and i.p. vehicle, daily oral 4 mg/kg or 10 mg/kg HOSU-53, 0.5 mg/animal i.p. anti-CD47 B6H12 (BioXCell) daily for 21 days, or HOSU-53 combination with anti-CD47. At day 80, half of the surviving mice in the combination cohorts were euthanized for bone marrow collection, leaving the remaining mice in the group on study without receiving any treatment. […] Figure 8, A and B, share the same vehicle and anti-CD47 cohorts.

[7] = molecular target: Dog DHODH (Canis lupus familiaris, UniProt A0A8I3MWX2); test: Cell-free multi-species DHODH enzyme inhibition assay, dog; assay type: biochemical; settings: n=1
Dog DHODH, sequence (A0A8I3MWX2 1-406): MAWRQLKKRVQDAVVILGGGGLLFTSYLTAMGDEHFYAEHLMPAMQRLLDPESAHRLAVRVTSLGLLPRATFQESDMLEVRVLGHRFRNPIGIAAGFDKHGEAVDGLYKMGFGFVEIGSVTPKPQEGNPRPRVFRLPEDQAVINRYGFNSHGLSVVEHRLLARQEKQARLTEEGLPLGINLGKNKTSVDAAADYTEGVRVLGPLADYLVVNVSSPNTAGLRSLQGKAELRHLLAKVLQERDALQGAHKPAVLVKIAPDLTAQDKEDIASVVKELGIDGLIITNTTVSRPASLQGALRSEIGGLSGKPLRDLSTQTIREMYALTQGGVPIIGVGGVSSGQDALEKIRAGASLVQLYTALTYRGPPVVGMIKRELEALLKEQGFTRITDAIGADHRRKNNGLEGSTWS

[8] = tested on: primary AML samples; test: Flow cytometry CD38 surface expression, primary AML samples; assay type: cell-based, human; settings: for CD38 MFI: 50nM
Protocol: as §2, §3

[9] = LogD; assay type: physicochemical; settings: pH 7.4
Source text: (§4) Supplement jciinsight-9-173646-s083.xlsx, sheet "Supplemental Table S.2." | column: HOSU-53

[10] = molecular target: CYP 2C9 (Homo sapiens, UniProt P11712); test: CYP inhibition 2C9; assay type: in vitro ADME
CYP 2C9, sequence (P11712 whole entry): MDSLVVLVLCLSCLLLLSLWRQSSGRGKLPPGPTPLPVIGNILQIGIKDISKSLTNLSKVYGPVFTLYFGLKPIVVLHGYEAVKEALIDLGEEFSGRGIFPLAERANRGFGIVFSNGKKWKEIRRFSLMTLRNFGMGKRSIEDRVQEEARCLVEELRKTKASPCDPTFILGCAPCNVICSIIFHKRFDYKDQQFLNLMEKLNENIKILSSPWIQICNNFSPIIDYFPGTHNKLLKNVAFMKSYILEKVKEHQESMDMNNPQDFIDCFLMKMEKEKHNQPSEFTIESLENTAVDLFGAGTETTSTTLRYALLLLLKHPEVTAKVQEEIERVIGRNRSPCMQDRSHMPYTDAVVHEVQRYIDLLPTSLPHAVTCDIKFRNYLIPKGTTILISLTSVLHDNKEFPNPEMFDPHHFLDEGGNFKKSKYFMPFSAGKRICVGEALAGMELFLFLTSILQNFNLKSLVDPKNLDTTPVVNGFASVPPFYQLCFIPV
Source text: as §4

[11] = tested on: MOLM-13 disseminated CDX AML model; test: MOLM-13 CDX synergy with FLT3 inhibitor gilteritinib (treatment from day 10); assay type: in vivo, NCG mice
Source text: Male 8- to 12-week-old NCG mice were engrafted with 1 × 10^5 cells via tail vein i.v. injection. At 10 days after engraftment (day 1 of treatment), mice (n = 10/arm) were randomized to receive p.o. qd vehicle (50/50 mix of 20% HPβCD and 0.5% methylcellulose + 0.2% Tween 80), […] treatment, day 79. Treatment was predetermined to stop on day 79, after which any remaining mice would be monitored until ERC.

## CCCCOc1cccc(-c2ccc(-c3cc(C(=O)O)c4cc(F)ccc4n3)cc2)c1 [HOSU-53]
[1]
  IC50: 20 nM
[2]; Pt.12, DMSO 1559.17
  CD47 MFI: 2087.23
[2]; Pt.13, DMSO 1665.27
  CD47 MFI: 1161.83
[2]; Pt.14, DMSO 585.79
  CD47 MFI: 749.14
[2]; Pt.15, DMSO 1002.16
  CD47 MFI: 904.23
[2]; Pt.16, DMSO 1349.33
  CD47 MFI: 1418.1
[2]; Pt.17, DMSO 334.61
  CD47 MFI: 360.19
[2]; Pt.18, DMSO 869.17
  CD47 MFI: 1060.36
[2]; Pt.19, DMSO 364.4
  CD47 MFI: 532.16
[2]; Pt.20, DMSO 398.54
  CD47 MFI: 525.38
[2]; Pt.2, DMSO 446.9
  CD47 MFI: 436.9
[3]
  IC50: 45 nM
[4]; Pt.12, 50nM, DMSO 56.46
  % Live (Near-IR negative): 60.99%
[4]; Pt.12, 100nM, DMSO 56.46
  % Live (Near-IR negative): 59.36%
[4]; Pt.13, 50nM, DMSO 72.92
  % Live (Near-IR negative): 72.53%
[4]; Pt.13, 100nM, DMSO 72.92
  % Live (Near-IR negative): 66.43%
[4]; Pt.14, 50nM, DMSO 68.39
  % Live (Near-IR negative): 70.9%
[4]; Pt.14, 100nM, DMSO 68.39
  % Live (Near-IR negative): 55.21%
[4]; Pt.15, 50nM, DMSO 61.7
  % Live (Near-IR negative): 41.58%
[4]; Pt.15, 100nM, DMSO 61.7
  % Live (Near-IR negative): 27.92%
[4]; Pt.16, 50nM, DMSO 45.99
  % Live (Near-IR negative): 41.34%
[4]; Pt.16, 100nM, DMSO 45.99
  % Live (Near-IR negative): 32.16%
[4]; Pt.17, 50nM, DMSO 29.84
  % Live (Near-IR negative): 29.21%
[4]; Pt.17, 100nM, DMSO 29.84
  % Live (Near-IR negative): 25.94%
[4]; Pt.18, 50nM, DMSO 29.72
  % Live (Near-IR negative): 26.96%
[4]; Pt.18, 100nM, DMSO 29.72
  % Live (Near-IR negative): 23.34%
[4]; Pt.19, 50nM, DMSO 75.66
  % Live (Near-IR negative): 74.9%
[4]; Pt.19, 100nM, DMSO 75.66
  % Live (Near-IR negative): 58.74%
[4]; Pt.20, 50nM, DMSO 67.67
  % Live (Near-IR negative): 44.64%
[4]; Pt.20, 100nM, DMSO 67.67
  % Live (Near-IR negative): 42.59%
[4]; Pt.2, 50nM, DMSO 78.52
  % Live (Near-IR negative): 59.04%
[4]; Pt.2, 100nM, DMSO 78.52
  % Live (Near-IR negative): 32.63%
[4]; primary AML samples, 7 days LTC
  cell viability: reduced cell viability
[5]
  IC50: 13 nM
[6]; 4 mg/kg HOSU-53
  Days of Study (survival, per animal): 39 days and 46 days and 43 days and 42 days and 32 days and 40 days and 41 days
[6]; 10 mg/kg HOSU-53
  Days of Study (survival, per animal): 38 days and 50 days and 49 days and 51 days and 53 days and 52 days
[7]
  IC50: 1.25 nM
[8]; Pt.12, DMSO 824.62
  CD38 MFI: 1062.2
[8]; Pt.13, DMSO 803.93
  CD38 MFI: 707.33
[8]; Pt.14, DMSO 15.61
  CD38 MFI: 21.18
[8]; Pt.15, DMSO 168
  CD38 MFI: 782.96
[8]; Pt.16, DMSO 274.9
  CD38 MFI: 277.67
[8]; Pt.17, DMSO 1637.55
  CD38 MFI: 2440.33
[8]; Pt.18, DMSO 74.26
  CD38 MFI: 85.51
[8]; Pt.19, DMSO 997.1
  CD38 MFI: 2400.6
[8]; Pt.20, DMSO 193.57
  CD38 MFI: 291.28
[8]; Pt.2, DMSO 150.75
  CD38 MFI: 197
[8]; primary AML samples treated in vitro
  CD38 surface expression: variable increase
[9]
  logD: 4.36
[10]
  IC50: 1160 nM
[11]; 10 mg/kg HOSU-53 daily p.o.
  median survival: 48 days
[11]; 4 mpk HOSU-53 poqd
  Survival, day of study at event (per animal): 40 days and 35 days and 44 days and 43 days and 37 days and 39 days
[11]; 10 mpk HOSU-53 poqd
  Survival, day of study at event (per animal): 54 days and 44 days and 43 days and 59 days and 58 days and 52 days
